# According to ChEMBL document CHEMBL3988442, “University of Dundee, Small-Polar-MMV Screening Library” (2021):
# pIC50: −log10 of the molar value. “And” between values parts separate entries of the source, which are not always exact repeats. Identical values can stand only once.
# Target: T1, Coenzyme A biosynthesis bifunctional protein CoaBC (Mycobacterium tuberculosis (strain ATCC 25618 / H37Rv), UniProt P9WNZ1)
# T1 sequence (P9WNZ1 whole entry): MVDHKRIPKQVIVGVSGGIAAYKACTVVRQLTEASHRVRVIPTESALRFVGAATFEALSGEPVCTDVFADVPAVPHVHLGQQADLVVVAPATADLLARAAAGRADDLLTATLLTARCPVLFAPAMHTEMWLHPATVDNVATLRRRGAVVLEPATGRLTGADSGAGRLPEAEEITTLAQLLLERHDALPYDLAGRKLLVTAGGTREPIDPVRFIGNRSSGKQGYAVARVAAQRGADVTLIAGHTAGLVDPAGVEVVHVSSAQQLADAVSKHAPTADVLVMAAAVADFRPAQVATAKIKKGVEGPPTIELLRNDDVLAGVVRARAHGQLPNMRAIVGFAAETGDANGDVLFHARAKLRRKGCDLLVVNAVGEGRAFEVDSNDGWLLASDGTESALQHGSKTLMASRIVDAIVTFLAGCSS
# Test: Biomol Green assay for MtCoaBC inhibitor, OD650 read
# Type: functional
row,SMILES,pIC50
1,Cc1nonc1OCCNC(=O)COc1ccc(F)cc1F,< 4.52
2,CCC(NC(=O)c1cc(CC(C)C)nn1C)c1cccc(C)n1 (configuration not stated),< 4.52
3,CC(C)=CCn1ncc(N2CCOCC2)cc1=O,< 4.52
4,Cc1ccc(-c2cc(C(=O)NCCCc3csc(N)n3)[nH]n2)o1,< 4.52
5,CSCc1noc(CNC(=O)C2CCN(C(=O)C3CC3)CC2)n1,< 4.52
6,COCCN(Cc1cnn(C)c1)CC1CCOC1 (configuration not stated),< 4.52
7,CC(C)N1CCC(C(=O)N2CCc3c(nc(CC4CC4)[nH]c3=O)C2)CC1,< 4.52
8,Cc1cc(C)c(C(=O)NC(c2nnc3n2CCNCC3)C(C)C)c(C)c1 (configuration not stated),< 4.52
9,CCC(=O)N1CCc2[nH]cnc2C12CCN(CC1CCOC1)CC2 (configuration not stated),< 4.52
10,CCn1ncc2c1NC(=O)CC2c1cnc(-c2ccccn2)nc1 (configuration not stated),< 4.52
11,CCn1ncnc1C(C)NC(=O)CC1CCN(C(C)C)CC1 (configuration not stated),< 4.52
12,O=C(O)c1cc(-c2ccoc2)cc(S(=O)(=O)N2CCSCC2)c1,< 4.52
13,COc1ccc(CN2CCC3(CCCN(C)C3=O)C2)c(OC)c1C (configuration not stated),< 4.52
14,CCc1ncc(C(=O)N2CC[C@@H]3CC[C@H](C2)N3C)cn1,< 4.52
15,NC(=O)CCNC(=O)C1(N2CCCCC2)Cc2ccccc2C1,< 4.52
16,CC(C)NS(=O)(=O)c1cc(C(=O)O)cc(-n2cc3c(n2)CCC3)c1,< 4.30
17,CCN(C)C[C@@H]1CN(C(=O)NC2CCCCC2)C[C@@H]1CO,< 4.52
18,Cn1ccnc1-c1cn(Cc2cn3c(n2)SCC3)nn1,< 4.52
19,CC(C)N1CC2(CCC1=O)CCN(c1ccnc3ccccc13)CC2,< 4.52
20,COCC(=O)N1CCC(Oc2cccc(C)c2)CC1,< 4.52
21,COCCN1CC(C(=O)N(CCN(C)C)Cc2ccc(C)s2)CC1=O (configuration not stated),< 4.52
22,CCc1nc(NCCc2c(C)nn(CC)c2C)c2cnn(C)c2n1,< 4.52

row,SMILES,pIC50
1,Cc1ccc(C(=O)O)cc1CNC(=O)CN1CC[C@](C)(O)C(C)(C)C1,< 4.52
2,CN(Cc1nccs1)C1CCN(c2cccc(-c3cscn3)c2)CC1,< 4.52
3,CCCN(Cc1ccccc1C)C(CC)CO (configuration not stated),< 4.52
4,CC(C)C1CN(C(=O)c2cn3cc(Cl)cnc3n2)CCCN1CC1CC1 (configuration not stated),< 4.52
5,CS(=O)(=O)c1ccc(CN2C[C@H]3CC[C@@H]2CN(c2ncccn2)C3)cc1,< 4.52
6,Cc1cccc(CN(C(=O)CCn2cncn2)C(C)C)c1,< 4.52
7,O=C1O[C@@H]2CN(c3ccc(Cl)cn3)C[C@@H]2N1CCc1ccc(F)cc1,< 4.52
8,Cc1ccc(CN2CCN(C3CCCC3)CC2CCO)o1 (configuration not stated),< 4.52
9,Cc1cccc(CNC(=O)NCC2CCN(Cc3ncc[nH]3)C2)c1 (configuration not stated),< 4.52
10,CC(C)NC(=O)[C@@H]1C[C@H](N)CN1C(=O)C1(c2ccc(Cl)cc2)CCC1,< 4.52
11,Cc1nc2c(C(=O)N[C@H]3C[C@H]4CN(C)CCN4C3)cccc2[nH]1,< 4.52
12,Cc1csc(CN2CCC(C(=O)O)(n3ccc(-c4ccco4)n3)CC2)n1,< 4.52
13,COc1ccc(NC2CCCN(Cc3cnc(N(C)C)s3)C2)cc1OC (configuration not stated),< 4.52
14,CCc1cc(NCCN2CCNC2=O)n2nccc2n1,< 4.52
15,O=C1O[C@@H]2CN(c3cnccn3)C[C@@H]2N1CCCc1ccc(F)cc1,< 4.52
16,COc1ccc(-c2noc(C3CC(C(C)C)=NO3)n2)cc1 (configuration not stated),< 4.52
17,O=C(O)COc1ccc(CN2CCCC(CCc3ccccc3)C2)cc1 (configuration not stated),4.70 and 4.71
18,O=c1cc(C2CCNCC2)nc(CCc2ccccn2)[nH]1,< 4.52
19,CN(C)c1ncc(CN2CCCC(Nc3ccc4c(c3)OCCO4)C2)s1 (configuration not stated),< 4.52
20,CC(=O)Nc1ccc(Oc2cccc(CN3CCCC3)c2)cc1,< 4.30
21,O=C(CCC1CCN(C2CCSCC2)CC1)NCC1CCCO1 (configuration not stated),< 4.52
22,O=C1CN(Cc2cn(CC3CCCN(C4CCSCC4)C3)nn2)CCN1 (configuration not stated),< 4.52

row,SMILES,pIC50
1,CC1(C)CN(CCC(=O)NCc2cccc(Cl)c2)CC[C@]1(C)O,< 4.52
2,Cc1cnc(C)c(-c2cccc(-c3ccn(CCN4CCCC4)n3)c2)n1,< 4.52
3,Cc1cc(N2CCC(c3ncc[nH]3)CC2)nc(N)n1,< 4.52
4,CCn1cc(CN(C)Cc2cnn(-c3ccc(F)cc3)c2)cn1,< 4.52
5,Cc1ccc(C(=O)O)c(N2Cc3cnc(C(C)(C)C)nc3C2)n1,< 4.52
6,COc1ccc(NC2(C(=O)N3CCCn4cncc4C3)CCCC2)cc1,< 4.52
7,Cc1nccnc1-n1c(COCC(=O)O)nc2c(C)cccc21,< 4.30
8,O[C@]12CCNC[C@H]1CN(c1ncccc1Cl)CC2,< 4.52
9,CN1CCN([C@H]2CCN(C(=O)c3cc(Cl)cn3C)C[C@H]2CCCO)CC1,< 4.52
10,CC(C)CCn1c(=O)n(CCn2cccc2)c2cc(C(=O)O)cnc21,< 4.52
11,CSc1nc(C)cc(N2CCC(c3ncc[nH]3)CC2)n1,< 4.52
12,NC(=O)c1cc2c(nc1Oc1cccc(CN3CCCC3)c1F)CCC2,< 4.52
13,CN(C)C(C(=O)NCc1cc(C(C)(C)C)n[nH]1)c1ccc(F)cc1 (configuration not stated),< 4.52
14,COCCC1CCN([C@@H]2c3ccccc3C3(CCNCC3)[C@H]2O)CC1,< 4.52
15,CCN(CCO)C[C@@H]1CN(C(=O)c2ccc(C)s2)C[C@@H]1CO,< 4.52
16,Cc1nonc1C1CCCN1Cc1ccc(C(=O)Nc2nccs2)cc1 (configuration not stated),< 4.52
17,Cc1ccnc(N2C[C@@H]3CC[C@H](C2)N(CC2CCC2)C3=O)n1,< 4.52
18,COc1cccc(Cc2nc3c([nH]2)CC(C)(C)CNC3=O)c1OC,< 4.52
19,CN1C(=O)C2(CCN(c3nccc4occc34)CC2)c2ccccc21,< 4.52
20,O=C(c1cccnc1SC/C=C/c1ccccc1)N1CCOCC(O)C1 (configuration not stated),< 4.52
21,COCCN(Cc1cnn(C)c1)CC1CCN(C(C)C)CC1,< 4.52
22,CN(C)C(=O)c1ccc(C(C(=O)O)N(C)Cc2ccccc2Cl)cc1 (configuration not stated),< 4.52

row,SMILES,pIC50
1,COCCN(C)CC(=O)N1CCCC2(CCC(=O)N(CC3CC3)C2)C1 (configuration not stated),< 4.52
2,O=C(NCCNc1ncccn1)C1CCCC1,< 4.52
3,CC(C)c1noc(CN2CCN(C(=O)c3cccnc3O)CC2)n1,< 4.52
4,O=C(CN1CC(n2cccn2)C1)NCCC1=CCCCC1,< 4.52
5,NC(=O)C1CN(C(=O)Nc2ccccc2Oc2ccccc2Cl)CCO1 (configuration not stated),< 4.52
6,Cc1cc(NC(=O)CN2CCN(c3nccs3)C(C)C2)no1 (configuration not stated),< 4.52
7,Cc1n[nH]c(C)c1NC(=O)CN1CCN(c2nccs2)C(C)C1 (configuration not stated),< 4.52
8,CC(C)c1ncc2c(n1)CN(Cc1nc(-c3ccccn3)no1)CC2,< 4.52
9,CC(C)c1noc(CN2CCN(C(=O)c3cc(Cl)ccc3F)CC2)n1,< 4.52
10,Cc1nn(C)c(C)c1NC(=O)CN1CCN(c2nccs2)C(C)C1 (configuration not stated),< 4.52
11,Cc1nn(C)c(Cl)c1C1CCCN1Cc1nc(-c2ccco2)no1 (configuration not stated),< 4.52
12,CN1CCOC(CNCc2cccc(OC(F)(F)F)c2)C1 (configuration not stated),< 4.52
13,Cc1cc(C2CCCN(CCNS(=O)(=O)c3ccccc3)C2)n[nH]1 (configuration not stated),< 4.52
14,OC(CN1CCC(c2ccn[nH]2)CC1)c1ccc(F)cc1F (configuration not stated),< 4.52
15,O=C(c1ccc(-n2cnnn2)cc1)N1CCCC(n2ccnc2)C1 (configuration not stated),< 4.52
16,Cc1cnn(CC2CCCN2C(=O)c2cccc(S(C)(=O)=O)c2)c1 (configuration not stated),< 4.52
17,CC(NC(=O)Nc1cccnc1N1CCCC1)c1ccn(C)c1 (configuration not stated),< 4.52
18,Cc1nn(C)c(Cl)c1C1CCCN1CC(=O)Nc1cccnc1 (configuration not stated),< 4.52
19,O=C(Cc1cccc2ccccc12)N1CCC(Nc2cccnn2)CC1,< 4.52
20,Cc1nc(CN2CCCC2Cn2cncn2)nc2ccccc12 (configuration not stated),< 4.52
21,O=C(NCCn1nc2ccccn2c1=O)c1cc[nH]n1,< 4.52
